In ChEMBL document CHEMBL1141730, “Destruxin-A4 chlorohydrin, a novel destruxin from fungus OS-F68576: isolation, structure determination, and biological activity as an inducer of erythropoietin” (1998):
Starred links: 1 amine or outer side, 2 acyl side, 3 side chain; linkers in the order of their positions; H or OH if unused. Non-standard residues stand in square brackets, D forms with d. Residues, ends and D or L forms follow the SMILES beside them. Pentanoyl(2-O,4-OH,5-Cl) = O=C(O)C(O)CC(O)CCl; dLac(3-vinyl) = C=CC[C@@H](O)C(=O)O; NMeI = CC[C@H](C)[C@H](NC)C(=O)O; X1 = C=CC[C@H](O[*:1])C(=O)[*:2]; Hica(2S) = CC(C)C[C@H](O)C(=O)O; dHica = CC(C)C[C@@H](O)C(=O)O; NMeV = CN[C@H](C(=O)O)C(C)C; NMeA = CN[C@@H](C)C(=O)O; βAla = NCCC(=O)O

Assays:
Hep 3B2 [1] = experiment: Induction of erythropoietin gene expression in human Hep3B cells over expressing human EPO assessed as maximal transcription induction ratio at 20 uM by luciferase reporter gene assay; type: functional
Hep 3B2 [2] = experiment: Induction of erythropoietin gene expression in human Hep3B cells over expressing human EPO assessed as drug level required to produce 5 fold transcription induction ratio; type: functional
Hep 3B2 [3] = experiment: Cytotoxicity against human Hep3B cells at =< 20 uM; type: functional, cell-based
Hep 3B2 [4] = experiment: Induction of erythropoietin secretion in human Hep3B cells expressing human EPO at 10 uM by ELISA; type: functional
Hep 3B2 [5] = experiment: Induction of erythropoietin gene expression in human Hep3B cells over expressing human EPO assessed as maximal transcription induction ratio at 10 uM by luciferase reporter gene assay; type: functional
Hep 3B2 [6] = experiment: Induction of erythropoietin gene expression in human Hep3B cells over expressing human EPO assessed as maximal transcription induction ratio at 1.3 uM by luciferase reporter gene assay; type: functional
Hep 3B2 [7] = experiment: Induction of erythropoietin gene expression in human Hep3B cells over expressing human EPO assessed as maximal transcription induction ratio at 5 uM by luciferase reporter gene assay; type: functional
Hep 3B2 [8] = experiment: Induction of erythropoietin gene expression in human Hep3B cells over expressing human EPO assessed as maximal transcription induction ratio at 2.1 uM by luciferase reporter gene assay; type: functional

Compound | Ratio (Hep 3B2 [1]) | Activity (Hep 3B2 [2]) [µM] | Activity (Hep 3B2 [3]) | Activity (Hep 3B2 [4]) [mU/ml] | Ratio (Hep 3B2 [5]) | Ratio (Hep 3B2 [6]) | Ratio (Hep 3B2 [7]) | Ratio (Hep 3B2 [8])
CC[C@H](C)[C@H](NC(=O)[C@@H]1CCCN1C(O)CC(O)CCl)C(=O)N(C)[C@H](C(=O)N(C)[C@@H](C)C(=O)NCCC(=O)O)[C@@H](C)CC (stereo partly specified) | 1 | – | – | – | – | – | – | –
CC[C@H](C)[C@@H]1NC(=O)[C@@H]2CCCN2C(=O)[C@@H](CC(C)C)OC(=O)CCNC(=O)[C@H](C)N(C)C(=O)[C@H](C(C)C)N(C)C1=O (cyclo(I[NMeV][NMeA][βAla][dHica]P)) | – | 2 | Not toxic | 35 | 19 | – | – | –
CC[C@H](C)[C@@H]1NC(=O)[C@@H]2CCCN2C(=O)C(CC(O)CCl)OC(=O)CCNC(=O)[C@H](C)N(C)C(=O)[C@H]([C@@H](C)CC)N(C)C1=O (stereo partly specified) (cyclo(I[NMeI][NMeA][βAla][Pentanoyl(2-O,4-OH,5-Cl)]P)) | – | 0.2 | Not toxic | 36 | – | 28 | – | –
CC[C@H](C)[C@@H]1NC(=O)[C@@H]2CCCN2C(=O)[C@H](CC(C)C)OC(=O)CCNC(=O)[C@H](C)N(C)C(=O)[C@H]([C@@H](C)CC)N(C)C1=O [homodestruxin B] (cyclo([Hica(2S)]PI[NMeI][NMeA][βAla])) | – | 0.8 | Not toxic | 36 | – | – | 18 | –
C=CC[C@@H]1OC(=O)CCNC(=O)[C@H](C)N(C)C(=O)[C@H]([C@@H](C)CC)N(C)C(=O)[C@H]([C@@H](C)CC)NC(=O)[C@@H]2CCCN2C1=O [destruxin A4] (cyclo(I[NMeI][NMeA][βAla][X1]P)) | – | 0.9 | Not toxic | 35 | – | – | 23 | –
C=CC[C@H]1OC(=O)CCNC(=O)[C@H](C)N(C)C(=O)[C@H](C(C)C)N(C)C(=O)[C@H]([C@@H](C)CC)NC(=O)[C@@H]2CCCN2C1=O (cyclo(I[NMeV][NMeA][βAla][dLac(3-vinyl)]P)) | – | 0.4 | Not toxic | 37 | – | – | – | 28
